Consider five compounds from patent US11976069B2, “Inhibitors of histone deacetylase useful for the treatment or prevention of HIV infection” (Merck Sharp & Dohme LLC, priority 2019, dated 2024).

The target in the test is T1, HDAC6 (Homo sapiens, UniProt Q9UBN7).
T1 sequence (Q9UBN7 1-1215): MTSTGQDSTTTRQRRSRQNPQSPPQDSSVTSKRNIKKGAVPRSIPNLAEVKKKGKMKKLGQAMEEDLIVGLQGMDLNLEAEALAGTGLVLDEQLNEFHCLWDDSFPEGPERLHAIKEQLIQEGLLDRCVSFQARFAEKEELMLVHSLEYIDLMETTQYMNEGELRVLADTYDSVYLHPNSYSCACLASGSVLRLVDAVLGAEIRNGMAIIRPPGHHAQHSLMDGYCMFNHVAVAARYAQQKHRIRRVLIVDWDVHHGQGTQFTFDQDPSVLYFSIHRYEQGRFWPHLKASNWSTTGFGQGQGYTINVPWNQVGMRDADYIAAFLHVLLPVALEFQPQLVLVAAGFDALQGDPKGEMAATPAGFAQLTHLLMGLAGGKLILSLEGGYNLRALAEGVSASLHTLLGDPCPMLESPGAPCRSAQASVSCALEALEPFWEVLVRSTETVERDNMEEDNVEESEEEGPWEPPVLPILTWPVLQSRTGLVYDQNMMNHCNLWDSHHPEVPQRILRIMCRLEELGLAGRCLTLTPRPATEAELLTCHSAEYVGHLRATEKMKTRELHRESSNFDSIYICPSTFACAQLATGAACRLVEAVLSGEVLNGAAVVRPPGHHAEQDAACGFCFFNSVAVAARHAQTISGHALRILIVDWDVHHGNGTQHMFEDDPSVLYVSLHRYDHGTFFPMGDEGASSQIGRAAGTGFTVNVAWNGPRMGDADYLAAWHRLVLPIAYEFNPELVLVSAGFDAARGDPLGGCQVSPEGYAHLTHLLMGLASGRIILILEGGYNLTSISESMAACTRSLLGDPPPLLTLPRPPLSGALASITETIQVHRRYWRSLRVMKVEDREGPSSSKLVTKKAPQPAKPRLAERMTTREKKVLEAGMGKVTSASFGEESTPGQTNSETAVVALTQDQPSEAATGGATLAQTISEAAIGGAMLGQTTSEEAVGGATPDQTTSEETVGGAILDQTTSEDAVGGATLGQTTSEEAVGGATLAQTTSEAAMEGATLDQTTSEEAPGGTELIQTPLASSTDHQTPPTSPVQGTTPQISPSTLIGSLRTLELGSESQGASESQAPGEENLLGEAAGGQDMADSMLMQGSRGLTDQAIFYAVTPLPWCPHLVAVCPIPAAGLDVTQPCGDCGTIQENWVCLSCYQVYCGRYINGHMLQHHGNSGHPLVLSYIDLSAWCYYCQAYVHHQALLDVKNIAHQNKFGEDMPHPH
Briefly: HDAC6 inhibition, modified Fluor-de-Lys assay. It is filed as biochemical. The note with it: 3 h pre-incubation, read-out: HDAC-6 IC50. The procedure: Human HDAC Enzyme Inhibitor FLUOR-DE-LYS Assay Materials
The histone deacetylase activities of HDAC1, HDAC2, HDAC3, HDAC6, and HDAC8 were measured in modified Fluor-de-Lys assays in 384-well format. In this assay, HDAC enzymes are initially incubated with an ε-acetyl (or -trifluoroacetyl)-L-lysine-containing substrate with a C-terminal amide having aminomethylcoumarin as the amine component. HDACs cleave the ε-acetyl group, rendering the resulting product susceptible to AMC cleavage by trypsin. The released AMC is then detected by its fluorescence.
The HDAC 1, 2 assays employed buffer A, which contained 20 mM HEPES, pH 8.0, 1 mM MgCl2, 137 mM NaCl, 2.7 mM KCl, 0.05% BSA. The HDAC3/SMRT assay employed buffer B, consisting of 20 mM HEPES, pH 8.0, 1 mM MgCl2, 50 mM NaCl, 2.7 mM KCl, 0.05% BSA, 0.005% Tween 20, and 10 μM IP4. The HDAC6 assay employed buffer C, consisting of 20 mM HEPES, pH 8.0, 1 mM MgCl2, 137 mM NaCl, 2.7 mM KCl, 0.5 mM TCEP (Calbiochem) and 0.05% BSA. The HDAC8 assay employed buffer D, consisting of 20 mM HEPES, pH 8.0, 1 mM MgCl2, 100 mM NaCl, 20 mM KCl, 0.1% n-octyl-β-D-glucoside (Anatrace, Maumee, Ohio) and 0.05% BSA. All steps were performed at room temperature (23° C.). The assay was performed by pre-incubating serial dilutions of test compounds with the target HDAC prior to initiation with substrate. Each compound was titrated in a 10-point dose response, using a 1:3 fold dilution scheme, with 0.15 ul of solution added by ECHO555 to the plate, followed by the addition of 20 μl of the appropriate HDAC isoform diluted in appropriate assay buffer. […] Final conditions used for each assay were: 1. HDAC 1, 0.3 nM total enzyme, 20 μM substrate BML-KI104; 2. HDAC 2, 1.5 nM total enzyme, 40 μM substrate BML-KI104; 3. HDAC 3/SMRT, 0.3 nM total enzyme, 20 μM substrate BML-KI104; 4. HDAC 6, 1.3 nM total enzyme, 2.5 μM substrate BML-KI104; 5. HDAC 8, 1.3 nM total enzyme, 200 μM substrate BML-KI178; the final high dose of test compound was 30 μM. For potent compounds, 900 nM was used as the final high dose. The reactions were stopped and developed by addition of 30 ul of HDAC developer solution containing a saturating level of HDAC inhibitor as follows: 1.

The mark [1] stands for this setting: 1.3 nM enzyme, 2.5 μM substrate BML-KI104.
Where [2] appears, read: […] enzyme, […] substrate BML-KI104.

Read-outs that look alike come from different tables or passages of the source.

The IC50 is the point on the concentration scale where inhibition reaches its midpoint.

Take `CCC(=O)CCCCC[C@H](NC(=O)[C@H]1CC12CCN(CC)CC2)c1[nH]c2nc1C(=O)NCCC/C=C\c1cccc-2c1` [Compound 14, (1S)-6-ethyl-N-{(1S)-7-oxo-1-[(11Z)-6-oxo-3,7,18-triazatricyclo[11.3.1.1~2,5~]octadeca-1(17),2(18),4,11,13,15-hexaen-4-yl]nonyl}-6-azaspiro[2.5]octane-1-carboxamide]: the IC50 under setting [1] is over 0.09 µM.
For the compound `CCC(=O)CCCCC[C@@H]1NC(=O)[C@H]2CC23CCN(CCCCCCCCn2ccc4cc(c(OC)cc4c2=O)-c2cnc1[nH]2)CC3` [Compound 5, (1^1S,4S)-6^7-methoxy-4-(6-oxooctyl)-6^1,6^2-dihydro-5^1H-3-aza-6(6,2)-isoquinolina-15(4,1)-piperidina-5(2,5)-imidazola-1(1,2)-cyclopropanapentadecaphane-6^1,2-dione], the IC50 under setting [2] was 0.218 µM.
In the case of `CCC(=O)CCCCC[C@H](NC(=O)[C@H]1CC12CCN(CC)CC2)c1[nH]c2nc1C(=O)NCCC/C=C/c1cccc-2c1` [Compound 15, (1S)-6-ethyl-N-{(1S)-7-oxo-1-[(11E)-6-oxo-3,7,18-triazatricyclo[11.3.1.1~2,5~]octadeca-1(17),2(18),4,11,13,15-hexaen-4-yl]nonyl}-6-azaspiro[2.5]octane-1-carboxamide], the IC50 under setting [1] is over 0.9 µM.
“(11S,4S)-4-(6-oxooctyl)-61,62-dihydro-3-aza-5(2,5)-oxazola-6(6,1)-quinolina-12(4,1)-piperidina-1(1,2)-cyclopropanadodecaphane-62,2-dione [Compound 8]”: the IC50 under setting [2] was over 0.9 µM.
Turning to `CCC(=O)CCCCCC1NC(=O)C2CC2N2CCC(CCCCCn3c(=O)ccc4cc(ccc43)-c3cnc1o3)CC2` [Compound 7, (11S,4S)-4-(6-oxooctyl)-61,62-dihydro-3-aza-5(2,5)-oxazola-6(6,1)-quinolina-12(4,1)-piperidina-1(1,2)-cyclopropanadodecaphane-62,2-dione], the IC50 under setting [2] is 0.858 µM.
